Test results taken from patent US20250206708A1, “AN OXAZIRIDINE PLATFORM FOR TARGETING FUNCTIONAL ALLOSTERIC METHIONINE SITES” (Novartis AG, priority 2022, published 2025).

Columns and labels:
[1] = test system: CDK4; test: Competition and pulldown of Compound 300/Compound 148 in CDK4-overexpressing MCF-7 lysate; assay type: binding, human; conditions: varying Compound 148 prior to 500 μM Compound 300, CDK4 overexpression
Description: MCF-7 cells were grown to 40% confluency in 3 mL DMEM media (Gibco) containing 10% (v/v) FBS in a 6-well chamber at 37° C., 5% CO2. Transfection was then performed as per Lipofectamine 2000 protocol (Invitrogen). Briefly, 0 or 2.5 μg of pcDNA3.1(+)-FLAG-TEV-CDK4 expression construct was introduced at 0:0, 2:1 and 3:1 transfection reagent:DNA. The lipid-DNA complex was incubated for 30 mins at 23° C. in Opti-MEM media (Gibco). Then, 250 μL complex was added to 2.75 mL DMEM containing no FBS. 3 mL DMEM+DNA was added to each well, while control wells received DMEM only. Cells were incubated for 6H at 37° C., 5% CO2. The media was then aspirated, and cells were given 3 mL DMEM+10% FBS and left to incubate for an additional 30H at 37° C., 5% CO2. Cells were washed 3× in 500 μL ice-cold PBS then harvested by scraping in 200 μL ice-cold PBS+1% Triton X-100 containing EDTA-free protease inhibitors (Roche). Cells were lysed at 4° C. for 30 mins while rocking. Lysate was clarified by centrifugation at 10,000×g at 4° C. for 15 mins. The supernatant was then transferred to a fresh prechilled 1.5 mL microcentrifuge tube. Protein concentration was normalized to 2.0 mg/mL via BCA assay (Pierce; cat no. 23225). […] CDK4 expression was quantified by densitometry (ImageJ) and normalized to the actin loading control. […]

[2] = test system: CDK4; test: 2D gel electrophoresis western blot of CDK4 T172 phosphorylation in MCF-7; assay type: cell-based, human; conditions: MCF-7 cells, 2D SDS-PAGE, spot 3 normalized to spot 1
Description: Serum-synchronized MCF-7 cells were treated with compound according to method outlined. Cells were monitored by eye for cell death and harvested once high-dose cells were round but not detached, about 2 hours. Media was removed and cells washed with HBSS. Trypsin was added to detach cells. Cells were transferred to a falcon tube containing 7 mL of complete DMEM and centrifuged at 1200 rpm for 2 min. Supernatant discarded and pellet gently resuspended in 1 mL PBS and transferred to an Eppendorf tube. Sample was spun once more, after which the pellet was quickly rinsed with ice cold MQ and spun a final time. Pellet was aspirated, flash frozen with LN2, and stored at −80° C.
SCell pellets were solubilized in cold 30 mM Tris buffer pH 8.5 containing 7 M urea, 2 M thiourea and 4% CHAPS with continuous vortexing until unfrozen and then kept agitated for 20 min. After centrifugation at 15,700 g for 10 min at 4° C., proteins were quantified. An equal volume of 2-D-sample buffer (7 M urea, 2 M thiourea, 2% CHAPS, 0.4% 3-10 Pharmalytes, and 0.4% DTT) was added to samples normalized to 150 μg proteins. […] The proteins were detected using Western Lightning Plus ECL (Perkin Elmer) and viewed in Fusion FX gel documentation system using the Solo7S camera (Vilber Lourmat, France).

**Q.** `O=C(N1CC2COCC2C1)N1OC1c1ccccc1` (centres unmarked) [Compound 148] was tested. Which “CDK4 signal in eluted proteins after pulldown (competition with Compound 300)” value [1] did it give?
**A.** dose-dependent decrease in signal in eluted proteins

**Q.** And the “T172 phosphorylation status on CDK4” value [2]?
**A.** diminish T172 phosphorylation status on CDK4 in MCF-7 cells in a dose-dependent manner
